{
  "source": "paper PMC13181795",
  "about": "“Structural Basis for BD1-Preferring 2,4-Disubstituted Pyrimidine BRDT Inhibitors” (Journal of Medicinal Chemistry, 2026)",
  "experiment": "Metabolic stability in male mouse liver microsomes",
  "assay_type": "in vitro ADME",
  "data": [
    {"smiles": "O=C(O)Cc1ccccc1Nc1c(Cl)cccc1Cl", "note": "[Diclofenac]", "values": [
      {"measurement": "Scaled-up CLint", "result": 130, "unit": "mL/min/kg"}
    ]}
  ]
}
